Laboratory results reported in the kinase profiling compilation of Christmann-Franck et al. (2016).

How the values were obtained:
Test in all cases: Caliper, Mobility shift assay off-chip
PAK3 (human) = PAK3 (human) (UniProt O75914)
MAP4K2 (human) = MAP4K2 (human) (UniProt Q12851)
CHEK2 (human) = CHEK2 (human) (UniProt O96017)
FES (human) = FES (human) (UniProt P07332)
MARK4 (human) = MARK4 (human) (UniProt Q96L34)
PHKG1 (human) = PHKG1 (human) (UniProt Q16816)
ABL2 (human) = ABL2 (human) (UniProt P42684)
LATS2 (human) = LATS2 (human) (UniProt Q9NRM7)
DYRK2 (human) = DYRK2 (human) (UniProt Q92630)
ALK EML4 (human) = ALK EML4 (human) (UniProt Q9HC35+Q9UM73)
MYLK2 (human) = MYLK2 (human) (UniProt Q9H1R3)
JAK1 JH1 JH2 (human) = JAK1 JH1 JH2 (human) (UniProt P23458)
Sequence of JAK1 JH1 JH2 (human) (P23458 whole entry, looked up): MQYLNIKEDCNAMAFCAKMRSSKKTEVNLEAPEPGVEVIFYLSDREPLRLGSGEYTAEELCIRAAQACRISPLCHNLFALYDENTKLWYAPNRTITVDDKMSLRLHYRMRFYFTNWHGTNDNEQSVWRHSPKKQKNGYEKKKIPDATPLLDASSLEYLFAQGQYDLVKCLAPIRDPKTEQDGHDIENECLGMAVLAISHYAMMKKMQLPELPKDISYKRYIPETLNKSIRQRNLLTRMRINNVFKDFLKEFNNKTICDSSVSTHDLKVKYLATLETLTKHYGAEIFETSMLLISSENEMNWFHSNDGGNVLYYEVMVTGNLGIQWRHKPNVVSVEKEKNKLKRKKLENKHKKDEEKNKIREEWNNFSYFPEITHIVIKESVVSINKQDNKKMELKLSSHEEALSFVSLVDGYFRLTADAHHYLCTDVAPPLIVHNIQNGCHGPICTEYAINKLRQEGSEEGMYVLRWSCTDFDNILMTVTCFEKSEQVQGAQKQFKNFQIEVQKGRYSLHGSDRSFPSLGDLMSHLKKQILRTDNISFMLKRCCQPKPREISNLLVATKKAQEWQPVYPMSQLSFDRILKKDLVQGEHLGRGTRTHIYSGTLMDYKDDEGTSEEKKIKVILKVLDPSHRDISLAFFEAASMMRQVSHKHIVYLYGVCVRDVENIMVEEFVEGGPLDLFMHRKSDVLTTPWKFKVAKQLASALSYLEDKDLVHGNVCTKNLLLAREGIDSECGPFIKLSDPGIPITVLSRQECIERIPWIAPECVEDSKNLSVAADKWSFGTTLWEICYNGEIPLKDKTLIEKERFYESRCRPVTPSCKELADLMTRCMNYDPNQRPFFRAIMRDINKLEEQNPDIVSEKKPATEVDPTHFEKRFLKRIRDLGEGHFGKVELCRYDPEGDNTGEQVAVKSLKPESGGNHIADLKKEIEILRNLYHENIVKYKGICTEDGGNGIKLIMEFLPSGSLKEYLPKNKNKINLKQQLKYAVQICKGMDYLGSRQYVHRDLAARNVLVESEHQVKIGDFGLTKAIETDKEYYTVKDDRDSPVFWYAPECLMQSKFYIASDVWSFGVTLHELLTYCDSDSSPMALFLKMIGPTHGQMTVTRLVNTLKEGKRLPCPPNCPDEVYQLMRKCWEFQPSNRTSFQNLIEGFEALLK

PDGFRA (human) = PDGFRA (human) (UniProt P16234)
MAP4K4 (human) = MAP4K4 (human) (UniProt O95819)
Sequence of MAP4K4 (human) (O95819 whole entry, looked up): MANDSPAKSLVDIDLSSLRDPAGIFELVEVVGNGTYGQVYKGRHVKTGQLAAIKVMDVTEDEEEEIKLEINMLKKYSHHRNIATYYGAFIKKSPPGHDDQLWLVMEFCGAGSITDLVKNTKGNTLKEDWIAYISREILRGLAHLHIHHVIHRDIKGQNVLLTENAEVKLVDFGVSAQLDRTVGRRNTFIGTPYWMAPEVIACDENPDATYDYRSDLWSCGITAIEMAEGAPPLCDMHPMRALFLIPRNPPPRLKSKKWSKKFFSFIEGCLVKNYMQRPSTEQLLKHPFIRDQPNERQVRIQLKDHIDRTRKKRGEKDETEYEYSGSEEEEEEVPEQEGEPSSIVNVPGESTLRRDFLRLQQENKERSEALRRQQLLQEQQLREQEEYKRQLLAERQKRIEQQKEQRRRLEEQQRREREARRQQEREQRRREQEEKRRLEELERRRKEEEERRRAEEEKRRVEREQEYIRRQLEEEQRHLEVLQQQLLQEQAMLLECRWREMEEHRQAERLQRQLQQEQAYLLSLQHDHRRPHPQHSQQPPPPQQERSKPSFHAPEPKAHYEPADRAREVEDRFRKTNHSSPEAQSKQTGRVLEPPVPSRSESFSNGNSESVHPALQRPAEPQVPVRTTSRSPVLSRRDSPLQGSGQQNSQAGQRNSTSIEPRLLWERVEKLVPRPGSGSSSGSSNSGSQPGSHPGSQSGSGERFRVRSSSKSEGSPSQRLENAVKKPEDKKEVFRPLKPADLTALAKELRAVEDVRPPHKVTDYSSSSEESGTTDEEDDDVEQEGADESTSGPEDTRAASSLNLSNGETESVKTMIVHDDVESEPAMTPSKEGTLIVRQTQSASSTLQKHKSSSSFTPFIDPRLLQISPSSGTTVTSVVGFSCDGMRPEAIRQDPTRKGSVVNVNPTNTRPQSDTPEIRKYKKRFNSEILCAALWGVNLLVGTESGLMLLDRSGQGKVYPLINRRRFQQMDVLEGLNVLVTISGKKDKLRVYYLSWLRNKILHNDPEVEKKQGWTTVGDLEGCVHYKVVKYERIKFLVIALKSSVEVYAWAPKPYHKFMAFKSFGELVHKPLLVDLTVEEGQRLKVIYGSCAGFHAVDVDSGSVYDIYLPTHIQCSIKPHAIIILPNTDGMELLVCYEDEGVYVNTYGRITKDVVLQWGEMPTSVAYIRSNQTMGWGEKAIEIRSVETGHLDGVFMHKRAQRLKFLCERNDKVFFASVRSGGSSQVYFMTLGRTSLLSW

PAK2 (human) = PAK2 (human) (UniProt Q13177)
WNK1 (human) = WNK1 (human) (UniProt Q9H4A3)
CAMK2B (human) = CAMK2B (human) (UniProt Q13554)
PAK1 (human) = PAK1 (human) (UniProt Q13153)
CIT (human) = CIT (human) (UniProt O14578)
CAMK2G (human) = CAMK2G (human) (UniProt Q13555)
MAPK10 (human) = MAPK10 (human) (UniProt P53779)
Sequence of MAPK10 (human) (P53779 whole entry, looked up): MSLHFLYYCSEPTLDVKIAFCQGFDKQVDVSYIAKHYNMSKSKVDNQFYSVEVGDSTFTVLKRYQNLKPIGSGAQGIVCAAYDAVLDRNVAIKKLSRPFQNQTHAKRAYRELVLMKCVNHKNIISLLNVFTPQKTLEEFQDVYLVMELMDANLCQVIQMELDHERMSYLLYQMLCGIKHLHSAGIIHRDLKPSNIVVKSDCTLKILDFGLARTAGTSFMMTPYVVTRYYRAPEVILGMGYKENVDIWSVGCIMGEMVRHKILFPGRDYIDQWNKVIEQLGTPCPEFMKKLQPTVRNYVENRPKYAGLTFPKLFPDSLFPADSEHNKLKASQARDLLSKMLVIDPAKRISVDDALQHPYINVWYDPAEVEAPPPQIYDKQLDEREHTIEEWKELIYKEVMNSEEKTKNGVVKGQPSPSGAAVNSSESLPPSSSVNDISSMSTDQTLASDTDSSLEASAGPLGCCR

PLK3 (human) = PLK3 (human) (UniProt Q9H4B4)
TAOK2 (human) = TAOK2 (human) (UniProt Q9UL54)
PDK2 (human) = PDK2 (human) (UniProt Q15119)
ALK NPM1 (human) = ALK NPM1 (human) (UniProt P06748+Q9UM73)
FLT1 (human) = FLT1 (human) (UniProt P17948)
ROS1 (human) = ROS1 (human) (UniProt P08922); conditions: compound 0.2 µM
BTK (human) = BTK (human) (UniProt Q06187)
Sequence of BTK (human) (Q06187 whole entry, looked up): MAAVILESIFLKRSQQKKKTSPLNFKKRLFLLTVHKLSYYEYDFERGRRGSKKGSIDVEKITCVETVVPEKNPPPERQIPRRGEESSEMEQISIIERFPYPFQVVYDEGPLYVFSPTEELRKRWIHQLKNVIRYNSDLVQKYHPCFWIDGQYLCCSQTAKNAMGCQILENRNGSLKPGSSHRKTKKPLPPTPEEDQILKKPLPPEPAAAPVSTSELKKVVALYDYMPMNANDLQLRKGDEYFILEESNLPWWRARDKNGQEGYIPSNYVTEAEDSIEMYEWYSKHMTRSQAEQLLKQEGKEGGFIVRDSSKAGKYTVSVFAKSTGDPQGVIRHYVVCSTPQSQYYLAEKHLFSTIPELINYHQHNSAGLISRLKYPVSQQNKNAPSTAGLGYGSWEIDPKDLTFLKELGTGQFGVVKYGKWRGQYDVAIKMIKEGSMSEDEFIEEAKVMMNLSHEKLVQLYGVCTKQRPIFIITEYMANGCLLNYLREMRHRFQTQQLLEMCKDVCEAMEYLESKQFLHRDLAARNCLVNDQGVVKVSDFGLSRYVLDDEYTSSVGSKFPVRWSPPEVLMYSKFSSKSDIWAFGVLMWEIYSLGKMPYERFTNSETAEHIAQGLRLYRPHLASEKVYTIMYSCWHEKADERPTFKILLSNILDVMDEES

BRSK1 (human) = BRSK1 (human) (UniProt Q8TDC3)
PRKAA2 (human) = PRKAA2 (human) (UniProt P54646)
Sequence of PRKAA2 (human) (P54646 whole entry, looked up): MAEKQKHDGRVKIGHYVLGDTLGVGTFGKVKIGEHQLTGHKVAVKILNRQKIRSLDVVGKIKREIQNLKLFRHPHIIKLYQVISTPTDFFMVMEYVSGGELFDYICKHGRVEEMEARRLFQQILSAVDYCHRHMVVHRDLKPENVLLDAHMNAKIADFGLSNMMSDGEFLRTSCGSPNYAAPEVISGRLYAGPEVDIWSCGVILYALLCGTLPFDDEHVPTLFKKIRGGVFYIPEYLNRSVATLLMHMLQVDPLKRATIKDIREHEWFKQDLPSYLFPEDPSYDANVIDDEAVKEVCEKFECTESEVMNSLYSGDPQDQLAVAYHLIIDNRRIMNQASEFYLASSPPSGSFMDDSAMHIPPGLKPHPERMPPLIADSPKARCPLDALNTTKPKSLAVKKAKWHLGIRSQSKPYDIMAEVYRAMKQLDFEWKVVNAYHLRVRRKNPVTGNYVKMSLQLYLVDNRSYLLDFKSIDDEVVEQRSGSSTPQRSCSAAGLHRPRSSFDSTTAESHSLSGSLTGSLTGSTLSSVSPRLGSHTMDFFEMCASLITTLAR

RPS6KB2 (human) = RPS6KB2 (human) (UniProt Q9UBS0)
SRPK2 (human) = SRPK2 (human) (UniProt P78362)
ALK (human) = ALK (human) (UniProt Q9UM73)

Sequence of MAP4K2 (human) (Q12851 whole entry, looked up): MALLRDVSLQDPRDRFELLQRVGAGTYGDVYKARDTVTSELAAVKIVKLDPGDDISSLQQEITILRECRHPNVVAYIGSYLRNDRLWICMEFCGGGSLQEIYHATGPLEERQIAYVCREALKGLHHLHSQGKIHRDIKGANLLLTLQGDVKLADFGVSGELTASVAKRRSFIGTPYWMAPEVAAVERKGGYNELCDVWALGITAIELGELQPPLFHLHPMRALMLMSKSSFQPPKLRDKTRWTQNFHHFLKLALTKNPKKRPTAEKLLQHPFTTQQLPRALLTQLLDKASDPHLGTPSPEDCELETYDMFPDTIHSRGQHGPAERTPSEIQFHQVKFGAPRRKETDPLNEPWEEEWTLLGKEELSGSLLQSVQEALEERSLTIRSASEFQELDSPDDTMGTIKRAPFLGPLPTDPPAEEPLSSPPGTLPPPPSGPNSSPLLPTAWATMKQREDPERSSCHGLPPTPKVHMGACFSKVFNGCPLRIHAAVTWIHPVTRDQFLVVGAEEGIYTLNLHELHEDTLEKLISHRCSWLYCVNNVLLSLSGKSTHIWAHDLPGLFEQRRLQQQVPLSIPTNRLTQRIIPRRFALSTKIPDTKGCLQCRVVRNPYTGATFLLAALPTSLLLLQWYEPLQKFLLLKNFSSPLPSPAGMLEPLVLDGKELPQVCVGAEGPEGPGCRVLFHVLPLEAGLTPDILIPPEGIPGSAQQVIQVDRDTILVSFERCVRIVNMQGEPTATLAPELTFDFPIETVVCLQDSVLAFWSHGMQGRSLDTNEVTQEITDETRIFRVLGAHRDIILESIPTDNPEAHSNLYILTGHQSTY

CNC(=O)c1cc(Oc2ccc(NC(=O)Nc3ccc(Cl)c(C(F)(F)F)c3)cc2)ccn1
inhibition (PAK3 (human); compound 0.02 µM): -1.4% | inhibition (PAK3 (human); compound 0.2 µM): 2.1% | inhibition (MAP4K2 (human); compound 0.02 µM): 3.2% | inhibition (MAP4K2 (human); compound 0.2 µM): 11.5% | inhibition (CHEK2 (human); compound 0.02 µM): -0.8% | inhibition (CHEK2 (human); compound 0.2 µM): 2.2% | inhibition (FES (human); compound 0.02 µM): -3.2% | inhibition (FES (human); compound 0.2 µM): 7.2% | inhibition (MARK4 (human); compound 0.02 µM): 1.4% | inhibition (MARK4 (human); compound 0.2 µM): 1.6% | inhibition (PHKG1 (human); compound 0.02 µM): -3.6% | inhibition (PHKG1 (human); compound 0.2 µM): -2% | inhibition (ABL2 (human); compound 0.02 µM): -2.8% | inhibition (ABL2 (human); compound 0.2 µM): 3.1% | inhibition (LATS2 (human); compound 0.02 µM): -4.4% | inhibition (LATS2 (human); compound 0.2 µM): 2.8% | inhibition (DYRK2 (human); compound 0.02 µM): -7.8% | inhibition (DYRK2 (human); compound 0.2 µM): 6.1% | inhibition (ALK EML4 (human); compound 0.02 µM): -6.5% | inhibition (ALK EML4 (human); compound 0.2 µM): 2.8% | inhibition (MYLK2 (human); compound 0.02 µM): -3.3% | inhibition (MYLK2 (human); compound 0.2 µM): -2.4% | inhibition (JAK1 JH1 JH2 (human); compound 0.02 µM): -1.7% | inhibition (JAK1 JH1 JH2 (human); compound 0.2 µM): 3.1% | inhibition (PDGFRA (human); compound 0.02 µM): 97.3% | inhibition (PDGFRA (human); compound 0.2 µM): 105% | inhibition (MAP4K4 (human); compound 0.02 µM): -4.1% | inhibition (MAP4K4 (human); compound 0.2 µM): 6% | inhibition (PAK2 (human); compound 0.02 µM): -1.7% | inhibition (PAK2 (human); compound 0.2 µM): 0.7% | inhibition (WNK1 (human); compound 0.02 µM): -4.5% | inhibition (WNK1 (human); compound 0.2 µM): 6.3% | inhibition (CAMK2B (human); compound 0.02 µM): -6.4% | inhibition (CAMK2B (human); compound 0.2 µM): -7% | inhibition (PAK1 (human); compound 0.02 µM): -0.9% | inhibition (PAK1 (human); compound 0.2 µM): 1.1% | inhibition (CIT (human); compound 0.02 µM): -4.9% | inhibition (CIT (human); compound 0.2 µM): -2.3% | inhibition (CAMK2G (human); compound 0.02 µM): -7% | inhibition (CAMK2G (human); compound 0.2 µM): 2% | inhibition (MAPK10 (human); compound 0.02 µM): -6.5% | inhibition (MAPK10 (human); compound 0.2 µM): -4.6% | inhibition (PLK3 (human); compound 0.02 µM): 4% | inhibition (PLK3 (human); compound 0.2 µM): 5.3% | inhibition (TAOK2 (human); compound 0.02 µM): 7.3% | inhibition (TAOK2 (human); compound 0.2 µM): 48% | inhibition (PDK2 (human); compound 0.02 µM): -0.1% | inhibition (PDK2 (human); compound 0.2 µM): 1.3% | inhibition (ALK NPM1 (human); compound 0.02 µM): -6% | inhibition (ALK NPM1 (human); compound 0.2 µM): 5% | inhibition (FLT1 (human); compound 0.02 µM): 49.3% | inhibition (FLT1 (human); compound 0.2 µM): 99.6% | inhibition (ROS1 (human)): 1.3% | inhibition (BTK (human); compound 0.02 µM): -0.7% | inhibition (BTK (human); compound 0.2 µM): 14.6% | inhibition (BRSK1 (human); compound 0.02 µM): -2.6% | inhibition (BRSK1 (human); compound 0.2 µM): -6% | inhibition (PRKAA2 (human); compound 0.02 µM): -5.3% | inhibition (PRKAA2 (human); compound 0.2 µM): 10.4% | inhibition (RPS6KB2 (human); compound 0.02 µM): 6.3% | inhibition (RPS6KB2 (human); compound 0.2 µM): 5.5% | inhibition (SRPK2 (human); compound 0.02 µM): -5.7% | inhibition (SRPK2 (human); compound 0.2 µM): -6.5% | inhibition (ALK (human); compound 0.02 µM): -3.3% | inhibition (ALK (human); compound 0.2 µM): 5.8%
